Results: ChEMBL document CHEMBL1201862, “PubChem BioAssay data set” (2004)
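Exposure lasted 48 hours, with cells grown in 96-well plates and compounds tested at five concentrations. GI50: concentration for 50% inhibition of growth.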 Calls of active or inactive are those of the source. No stated cut-off is given here; in the data, active = GI50 up to about 1.1 µM and inactive = higher.

Experiments:
Experiment in all cases: NCI-60 cell line screen, 48 h
[1] = tested on: DMS-273
[2] = tested on: HCT-15
[3] = tested on: HCT-116
[4] = tested on: SK-OV-3
[5] = tested on: RPMI-8226
[6] = tested on: LOX IMVI
[7] = tested on: NCI-H226
[8] = tested on: Malme-3M
[9] = tested on: CCRF-CEM
[10] = tested on: NCI-H522
[11] = tested on: SN12C
[12] = tested on: SNB-19
[13] = tested on: SF-539
[14] = tested on: RXF 393
[15] = tested on: KM12

**Q.** What does the source list for CNC(=O)OCc1nc(SC(C)C)n(C)c1COC(=O)NC?
**A.** GI50 [1]: 99.8 µM (inactive); GI50 [2]: > 100 µM; GI50 [3]: > 100 µM (inactive); GI50 [4]: > 100 µM (inactive); GI50 [5]: > 71.1 µM (inactive); GI50 [6]: > 100 µM (inactive); GI50 [7]: > 100 µM (inactive); GI50 [8]: > 100 µM (inactive); GI50 [9]: 48.5 µM (inactive); GI50 [10]: 58.5 µM (inactive); GI50 [11]: > 100 µM (inactive); GI50 [12]: > 100 µM (inactive); GI50 [13]: > 100 µM (inactive); GI50 [14]: 33.4 µM (inactive); GI50 [15]: > 100 µM (inactive)

**Q.** Which results are given for IC[P+]1(c2ccccc2)CCCC1?
**A.** GI50 [1]: 18.7 µM (inactive); GI50 [2]: 4.15 µM; GI50 [3]: 49.8 µM (inactive); GI50 [4]: > 100 µM (inactive); GI50 [5]: 29.8 µM (inactive); GI50 [6]: 26.7 µM (inactive); GI50 [7]: 24.2 µM (inactive); GI50 [8]: 44.5 µM (inactive); GI50 [9]: 54.2 µM (inactive); GI50 [10]: 8.36 µM (inactive); GI50 [11]: 14.3 µM (inactive); GI50 [12]: 59.6 µM (inactive); GI50 [13]: 45.3 µM (inactive); GI50 [14]: 76.7 µM (inactive); GI50 [15]: 32.5 µM (inactive)

**Q.** What does the source list for Cn1cc(C2(C)CC(C)(C)c3c2n(C)c2ccccc32)c2ccccc21 (stereo not given)?
**A.** GI50 [1]: > 100 µM (inactive); GI50 [2]: > 100 µM; GI50 [4]: > 100 µM (inactive); GI50 [5]: 40.2 µM (inactive); GI50 [6]: > 100 µM (inactive); GI50 [7]: 90.2 µM (inactive); GI50 [8]: > 100 µM (inactive); GI50 [9]: 92.7 µM (inactive); GI50 [10]: 40.3 µM (inactive); GI50 [11]: > 100 µM (inactive); GI50 [12]: > 100 µM (inactive); GI50 [13]: > 100 µM (inactive); GI50 [14]: 32.5 µM (inactive); GI50 [15]: 94 µM (inactive)

**Q.** What does the source list for COC(=O)CCc1cccnc1/C=N/O?
**A.** GI50 [1]: > 100 µM (inactive); GI50 [2]: > 100 µM; GI50 [3]: > 100 µM (inactive); GI50 [4]: > 100 µM (inactive); GI50 [6]: > 100 µM (inactive); GI50 [7]: > 100 µM (inactive); GI50 [8]: > 100 µM (inactive); GI50 [9]: 96.4 µM (inactive); GI50 [10]: > 100 µM (inactive); GI50 [11]: > 100 µM (inactive); GI50 [12]: > 100 µM (inactive); GI50 [13]: > 100 µM (inactive); GI50 [14]: > 100 µM (inactive); GI50 [15]: > 100 µM (inactive)

**Q.** With CC(=O)NC1C(OCc2ccccc2)OC(COC(=O)CCCCCCCCCCNC(=O)CCNc2ccc([N+](=O)[O-])c3[nH]c4ccc(O)cc4c(=O)c23)C(O)C1OC(C)C(=O)N[C@H](C(=O)N[C@H](CCC(=O)O)C(N)=O)C(C)C (stereo not given in full) as the compound, how does the GI50 [1] read?
**A.** 40.3 µM (inactive)

**Q.** And the GI50 [2]?
**A.** > 100 µM

**Q.** And the GI50 [3]?
**A.** 53.7 µM (inactive)

**Q.** What about the GI50 [4] of the same compound?
**A.** 84.1 µM (inactive)

**Q.** And the GI50 [5]?
**A.** 19.2 µM (inactive)

**Q.** What about the GI50 [6] of the same compound?
**A.** 28.8 µM (inactive)

**Q.** And the GI50 [7]?
**A.** 36.3 µM (inactive)

**Q.** And the GI50 [8]?
**A.** 22.9 µM (inactive)

**Q.** What about the GI50 [9] of the same compound?
**A.** 33 µM (inactive)

**Q.** What about the GI50 [10] of the same compound?
**A.** 17.4 µM (inactive)

**Q.** What about the GI50 [11] of the same compound?
**A.** 64 µM (inactive)

**Q.** And the GI50 [12]?
**A.** 46.9 µM (inactive)

**Q.** What about the GI50 [13] of the same compound?
**A.** 40.1 µM (inactive)

**Q.** And the GI50 [14]?
**A.** 69.3 µM (inactive)

**Q.** What about the GI50 [15] of the same compound?
**A.** 63.4 µM (inactive)

**Q.** What does the source list for O=C(Nc1ccccc1)O/N=C1/CCCC/C1=C\c1ccccc1?
**A.** GI50 [1]: 15.9 µM (inactive); GI50 [2]: 11.3 µM; GI50 [3]: 13.7 µM (inactive); GI50 [4]: 20.3 µM (inactive); GI50 [5]: 16.5 µM (inactive); GI50 [6]: 18.9 µM (inactive); GI50 [7]: 24.9 µM (inactive); GI50 [9]: 10.7 µM (inactive); GI50 [10]: 16.4 µM (inactive); GI50 [11]: 16.3 µM (inactive); GI50 [13]: 17.7 µM (inactive); GI50 [14]: 16.3 µM (inactive)
